{"source": "patent US8217155B2", "about": "(Gilead Colorado, Inc., priority 2007, dated 2012)", "key": {"[1]": {"biological_target": "T1, human ETA receptors expressed in CHO cells (Homo sapiens, UniProt P25101)", "T1 construct": "expressed in transfected cells; host or cells: CHO cells (membranes)", "T1 sequence (P25101 21-427)": "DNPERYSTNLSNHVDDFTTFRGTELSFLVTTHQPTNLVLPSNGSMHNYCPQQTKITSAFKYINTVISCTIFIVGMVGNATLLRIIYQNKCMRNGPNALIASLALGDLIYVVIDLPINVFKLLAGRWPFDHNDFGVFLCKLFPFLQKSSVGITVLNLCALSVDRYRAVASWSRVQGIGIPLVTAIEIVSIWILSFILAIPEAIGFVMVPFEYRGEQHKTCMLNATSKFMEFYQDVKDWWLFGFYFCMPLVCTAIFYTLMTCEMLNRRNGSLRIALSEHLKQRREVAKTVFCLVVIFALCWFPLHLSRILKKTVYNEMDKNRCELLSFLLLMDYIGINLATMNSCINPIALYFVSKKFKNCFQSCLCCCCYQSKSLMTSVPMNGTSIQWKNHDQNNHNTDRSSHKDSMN", "test": "In vitro ETA receptor binding, [125I]-labeled ET-1 displacement", "conditions": "incubation time 30 minutes; for affinity for the ETA receptor relative to that for the ETB receptor: CHO cells; for Ki: not steady-state, read-out: Ki ± SE, ETA", "description": "(§1) The test compounds are dissolved at 10^−2M in methanol: Cremophor EL® 100:1 and diluted in deionized water to concentrations of […] to 10^−6 M. Binding reactions are initiated by addition of [^125I]-labeled ET-1 or [^125I]-labeled ET-3 for the ETA and ETB receptors, respectively, after 2 minutes preincubation of the membranes in the presence of Metabolite B or Metabolite C. The specific radioligand binding to each receptor is calculated as the difference between total binding and non-specific binding, determined in the presence of an excess of unlabeled ET-1. IC; values are determined by nonlinear curve fitting from experiments performed with 3 concentrations of test compound."}, "[2]": {"biological_target": "T2, human ETB receptors expressed in CHO cells (Homo sapiens, UniProt P24530)", "T2 construct": "expressed in transfected cells; host or cells: CHO cells (membranes)", "T2 sequence (P24530 27-442)": "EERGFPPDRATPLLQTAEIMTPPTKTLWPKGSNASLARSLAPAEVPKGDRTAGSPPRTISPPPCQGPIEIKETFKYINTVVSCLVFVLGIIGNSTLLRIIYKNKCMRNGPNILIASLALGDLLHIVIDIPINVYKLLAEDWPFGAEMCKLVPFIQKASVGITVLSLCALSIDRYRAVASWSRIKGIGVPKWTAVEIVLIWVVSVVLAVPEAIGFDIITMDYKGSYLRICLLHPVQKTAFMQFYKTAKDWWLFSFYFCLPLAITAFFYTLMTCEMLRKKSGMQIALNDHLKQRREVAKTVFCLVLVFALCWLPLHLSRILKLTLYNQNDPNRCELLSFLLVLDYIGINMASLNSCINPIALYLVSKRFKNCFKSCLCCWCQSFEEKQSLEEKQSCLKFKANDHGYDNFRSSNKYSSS", "test": "In vitro ETB receptor binding, [125I]-labeled ET-3 displacement", "conditions": "incubation time 30 minutes, not steady-state; read-out: Ki ± SE, ETB", "description": "as §1"}, "[3]": {"test": "In vivo excretion in dogs", "conditions": "dog, after single 3 mg/kg oral dose of ambrisentan"}, "[4]": {"test": "In vitro metabolism in liver microsomes (phase I)", "assay_type": "in vitro ADME", "conditions": "rat, dog, and human liver microsomes"}, "[5]": {"test": "In vitro metabolism in human hepatocytes", "assay_type": "in vitro ADME", "conditions": "24-hour period"}, "[6]": {"test": "In vitro metabolism in rat hepatocytes", "assay_type": "in vitro ADME", "conditions": "24-hour period"}, "[7]": {"system": "uridine diphosphate glucuronosyl transferase (UGT) isoenzymes", "test": "Reaction phenotyping with microsomes expressing single UGT isoenzymes", "assay_type": "in vitro ADME", "source_text": "(§2) Reaction phenotyping using microsomes expressing single CYP isoenzymes or uridine diphosphate glucuronosyl transferase (UGT) isoenzymes are used to identity those enzymes that are sufficient to metabolize ambrisentan in vitro."}, "CYP isoenzymes": {"system": "CYP isoenzymes", "test": "Reaction phenotyping with microsomes expressing single CYP isoenzymes", "assay_type": "in vitro ADME", "source_text": "as §2"}, "[8]": {"test": "Isolated perfused rat liver model", "assay_type": "in vitro ADME, male Wistar rats", "conditions": "for cumulative excretion of total radioactivity in the bile: six hours; for decrease of total radioactivity in the perfusate: six hours post-dose", "description": "The metabolic pathways of ambrisentan in male Wistar rats are investigated using the isolated perfused rat liver model. […] The livers are removed from 2 animals in each dose group and perfused in a recirculating system for 6 hours and the metabolite pattern of the perfusion medium and bile determined."}, "[9]": {"test": "In vivo excretion in rats", "conditions": "ADME studies"}, "[10]": {"test": "Biliary excretion and enterohepatic circulation in rats", "assay_type": "in vivo, male rats", "description": "Bile and urine are collected over a 24-hour period. […] To assess enterohepatic circulation, a second set of rats (acceptor rats) is intraduodenally dosed with pooled bile (0-12 hour period) from the first set of rats (donor rats), and bile and urine are again collected over a 24-hour period. […] The metabolite patterns in bile from donor and acceptor rats are similar."}, "ETA receptor": {"biological_target": "T3, ETA receptor (Homo sapiens, UniProt P25101)", "T3 construct": "Studies performed in human ventricular tissue with ambrisentan; from tissue; host or cells: human ventricular tissue", "T3 sequence (P25101 21-427)": "T1 sequence (P25101 21-427)", "conditions": "human ventricular tissue; cited from earlier work"}, "[11]": {"conditions": "cited from earlier work"}, "[12]": {"test": "Biliary excretion in dogs", "conditions": "10 mg/kg intraduodenal, eight hours post-administration"}, "[13]": {"test": "In vitro metabolism in dog hepatocytes", "conditions": "24-hour period"}, "[14]": {"conditions": "dog, in vivo, po, 3 mg/kg"}, "[15]": {"conditions": "both, dog, in vivo, 10 mg/kg"}, "[16]": {"conditions": "dog, human, 24 h"}, "[17]": {"conditions": "donor rats, intraduodenal, within 24 hours"}}, "note": "Like-named read-outs stand apart in the source and are kept apart here."}
{"smiles": "Cc1cc(C)nc(OC(C(=O)O)C(O)(c2ccccc2)c2ccccc2)n1", "note": "(racemic) [Metabolite C]", "values": [{"measurement": "affinity for the ETA receptor relative to that for the ETB receptor", "setting": "[1]", "result": "about 100 times"}, {"measurement": "Ki", "setting": "[1]", "result": "22.2 ± 4.2", "unit": "nM"}, {"measurement": "Ki", "setting": "[2]", "result": "556 ± 43.6", "unit": "nM"}]}
{"smiles": "Cc1cc(C)nc(O)n1", "note": "[4,6-dimethyl-2hydroxypyrimidine, 4,6-dimethyl-2-hydroxypyrimidine]", "values": [{"measurement": "metabolite pattern in excreta", "setting": "[3]", "result": "main metabolite in urine"}]}
{"smiles": "COC(c1ccccc1)(c1ccccc1)[C@H](Oc1nc(C)cc(C)n1)C(=O)O", "note": "[Ambrisentan, (S)-2-[(4,6-dimethylpyrimidin-2-yl)oxy]-3-methoxy-3,3-diphenylpropionic acid]", "values": [{"measurement": "Ki", "setting": "[1]", "result": "0.63 ± 0.2", "unit": "nM"}, {"measurement": "turnover of parent compound to hydroxylated metabolite (Metabolite B)", "setting": "[4]", "result": "3-4%"}, {"measurement": "radiolabeled ambrisentan metabolized by phase II pathway", "setting": "[5]", "result": 21, "unit": "%"}, {"measurement": "metabolized by phase II pathway", "setting": "[6]", "result": 15, "unit": "%"}, {"measurement": "UGT isoenzymes that glucuronidate the compound", "setting": "[7]", "result": "UGT1A9S, UGT2B7S, and UGT1A3S"}, {"measurement": "CYP isoenzymes that oxidatively metabolize the compound", "setting": "CYP isoenzymes", "result": "CYP3A4, CYP2C19, and CYP3A5"}, {"measurement": "cumulative excretion of total radioactivity in the bile", "setting": "[8]; 3 mg/kg dose", "result": 25, "unit": "%"}, {"measurement": "decrease of total radioactivity in the perfusate", "setting": "[8]; 3 mg/kg dose", "result": 55, "unit": "%"}, {"measurement": "cumulative excretion of total radioactivity in the bile", "setting": "[8]; 10 mg/kg dose", "result": 30, "unit": "%"}, {"measurement": "decrease of total radioactivity in the perfusate", "setting": "[8]; 10 mg/kg dose", "result": 55, "unit": "%"}, {"measurement": "cumulative excretion of total radioactivity in the bile", "setting": "[8]; 30 mg/kg dose", "result": 31, "unit": "%"}, {"measurement": "decrease of total radioactivity in the perfusate", "setting": "[8]; 30 mg/kg dose", "result": 45, "unit": "%"}, {"measurement": "share of parent compound among metabolic species in feces", "setting": "[9]", "result": "ca. 80%"}, {"measurement": "total radioactivity recovered in the bile of acceptor rats", "setting": "[10]; acceptor rats dosed intraduodenally with pooled donor bile, 24-hour period", "result": "76.5-94%"}, {"measurement": "total radioactivity recovered from the bile", "setting": "[10]; [17]", "result": 94.8, "unit": "%"}, {"measurement": "total radioactivity recovered from the urine", "setting": "[10]; [17]", "result": 1.5, "unit": "%"}, {"measurement": "share of parent compound among metabolic species in bile", "setting": "[10]; rats, biliary excretion study", "result": 95, "unit": "%"}, {"measurement": "affinity for the ETA receptor", "setting": "ETA receptor", "result": "high affinity (low Ki)"}, {"measurement": "mean 6MWD, mean increase from baseline", "setting": "[11]; all patients, after 12 weeks of treatment", "result": 36, "unit": "meters"}, {"measurement": "primary efficacy endpoint (exercise capacity measured by 6MWD)", "setting": "[11]; phase II trials, all four dose groups", "result": "statistically significant and clinically meaningful increase"}, {"measurement": "total radioactivity excreted into the bile", "setting": "[12]; female dogs", "result": 47, "unit": "%"}, {"measurement": "total radioactivity excreted into the bile", "setting": "[12]; male dogs", "result": 54, "unit": "%"}, {"measurement": "radiolabeled ambrisentan metabolized by phase II pathway", "setting": "[13]", "result": 25, "unit": "%"}]}
{"smiles": "COC(c1ccccc1)(c1ccccc1)[C@H](Oc1nc(C)cc(C)n1)C(=O)O[C@@H]1O[C@H](C(=O)O)[C@@H](O)[C@H](O)[C@H]1O", "note": "[Metabolite A, (2S,3S,4S,5R,6S)-6-((S)-2-(4,6-Dimethylpyrimidin-2-yloxy)-3-methoxy-3,3-diphenylpropanoyloxy)-3,4,5-trihydroxytetrahydro-2H-pyran-2-carboxylic acid]", "values": [{"measurement": "metabolite pattern in excreta", "setting": "[14]", "result": "main metabolite in feces"}, {"measurement": "share of the total radioactivity in bile", "setting": "[15]", "result": "77-81%"}]}
{"smiles": "COC(c1ccccc1)(c1ccccc1)[C@H](Oc1nc(C)cc(CO)n1)C(=O)O", "note": "[Metabolite B, (S)-2-(4-(Hydroxymethyl)-6-methylpyrimidin-2-yloxy)-3-methoxy-3,3-diphenylpropanoic acid]", "values": [{"measurement": "affinity for the ETA receptor relative to that for the ETB receptor", "setting": "[1]", "result": "about 100 times"}, {"measurement": "Ki", "setting": "[1]", "result": "40.3 ± 6.1", "unit": "nM"}, {"measurement": "Ki", "setting": "[2]", "result": "4100 ± 322", "unit": "nM"}, {"measurement": "amount of hydroxylated metabolite detected", "setting": "[16]", "result": "< 1", "unit": "%"}]}
